Laboratory results reported in US8735151B2, “Spontaneously contracting fish cell aggregates, use thereof and method for the production thereof” (Fraunhofer-Gesellschaft zur Foerderung der Angewandten …, priority 2009, dated 2014).

Experiments:
[1] = tested on: spontaneously contracting cell aggregates (certain channels in the heart: potassium and calcium channels); assay: Drug tests on the cell aggregates (electrophysiology, intracellular derivation with a sharp electrode); assay type: cell-based, Rainbow trouts (Oncorhynchus mykiss, Walbaum); details: for reaction of the aggregates on drugs which influence certain channels in the heart: FIG. 10; for recovery of the aggregates after the drug testing: medium change
Experimental: FIG. 10 Effect of cardiac drugs on the cell aggregates; A: isoproterenol (calcium channel agonist); B: rilmakalim ([…])
The electrophysiology is important for the use of the cell aggregates as a test system in pharmacology. Measurement of the electric activity was performed by means of extracellular measurement via MEA (multi-electrode array) and intracellular measurement via a sharp electrode.
The properties of action potentials and the examination on certain channels (potassium and calcium channels) were carried out with a sharp electrode.
The reaction of the aggregates on drugs which influence certain channels in the heart is of importance for the functionality as a test model. […] Examinations were carried out with isoproterenol (calcium channel agonist) (FIG. 10A) and rilmakalim ([…]).

[2] = tested on: spontaneously contracting cell aggregate; assay: Reaction of cell aggregates on the addition of potassium (light microscope, video recordings); assay type: cell-based, Rainbow trouts (Oncorhynchus mykiss, Walbaum)
Experimental: The reaction of a cell aggregate which had already contracted for 16 days in culture on potassium could be tested in another experiment. It was shown under a light microscope (Axiovert 40C; Zeiss, Germany) with video recordings that the beating frequency of this aggregate increased from 66 beats per minute to 72 beats per minute over a period of 10 minutes. After these 10 minutes, a 1.75 mM potassium chloride solution was added. […] After removing the medium containing the 1.75 mM KCl solution and replacing it with fresh DMEM/20% FBS, the cell aggregate began to beat again after 2 minutes. However, the beating frequency was at first only 16 beats per minute which recovered to the original frequency within the next three days.

Row | SMILES | reaction of the aggregates on drugs which influence certain channels in the heart [1] | recovery of the aggregates after the drug testing [1] | contraction speed of the aggregate after adding the KCl solution ([2]; 1.75 mM potassium chloride solution, aggregate 16 days contracting in culture, for 6 seconds after addition, baseline 66-72 beats per minute) | time after addition until contraction stopped ([2]; 1.75 mM potassium chloride solution, no more contractions observed) | beating frequency at first after medium replacement ([2]; after removal of 1.75 mM KCl, recovered to the original frequency within the next three days) | time until the cell aggregate began to beat again after replacing medium ([2]; after removing medium containing 1.75 mM KCl and replacing with fresh DMEM/20% FBS)
1 | CC(C)NCC(O)c1ccc(O)c(O)c1 (centres unmarked) [isoproterenol] | in the same manner as the human heart | recover after the drug testing by means of a medium change | – | – | – | –
2 | CC1(C)Oc2ccc(S(=O)(=O)c3ccccc3)cc2[C@@H](N2CCCC2=O)[C@@H]1O [rilmakalim] | in the same manner as the human heart | recover after the drug testing by means of a medium change | – | – | – | –
3 | [Cl-].[K+] [potassium chloride] | – | – | triple the speed as before | 10 s | 16 beats per minute | 2 min
